# Like-named read-outs stand apart in the source and are kept apart here.
# Experiments:
# [1] = tested on: HCMV Strain AD169 in MRC-5 cells; assay: Viral qPCR assay HCMV (V0/V1, V2/V3), EC50; format: cell-based
# Protocol: (§1) Viral qPCR Assays (V0/V1)
# (§2) MRC5 cells, Vero cells, and MeWo cells were obtained from ATCC and were maintained at 37° C./5% CO2/90% relative humidity in Minimal Essential Medium with 10% fetal bovine serum, […] L-glutamine, 100 units/ml penicillin and 100 ug/ml streptomycin. Assay plates were prepared by dispensing compounds dissolved in DMSO into wells of 384 well collagen-coated plates using an ECHO acoustic dispenser. Each compound was tested in a 10-point, serial 3-fold dilution. Controls included uninfected cells and infected cells treated only with DMSO. Assays were initiated by mixing selected cells, in suspension, with virus, and dispensing 50 μl/well infected cells to pre-plated compounds. Plates were incubated at 37° C./5% CO2/90% relative humidity for ˜72 hrs to permit genomic replication, and infected cells were lysed by the addition of an equal volume of lysis buffer (10 mM Tris-HCl, pH8, 50 mM KCl, 2 mM MgCl2, 0.45% NP-40, 0.45% Tween-20, and 100 μg/ml proteinase K). An aliquot of the lysate was transferred to a 384-well PCR plate and incubated at 56° C. for 1 hour and then at 95° C. for 10 min. Levels of a viral gene and of the cellular control, PPIA (Thermo Fisher Assay ID=Hs04194521_s1), were measured in separate 10 μL qPCR assays using TaqMan® Gene Expression Master Mix (Applied Biosystems), and an 7900HT Fast Real-Time PCR System with 384-Well Block Module. 7-point, serial 10-fold dilutions of a plasmid standard were run on each plate to generate a standard curve, and genome copies numbers were calculated by plotting experimental Ct onto linear regression of the standard curve. Viral genome copy numbers were normalized by cellular control copy number, and compound effects were normalized to the window defined by the controls. Calculated % effects were fit using a 4-parameter algorithm, and EC50 was reported.
# (§3) Viral qPCR Assays (V2/V3)
# as §2, with “gene” for “gene and of the cellular control, PPIA (Thermo Fisher Assay ID=Hs04194521_s1),”, “in” for “in separate”, “Compound effects on viral” for “Viral”, “number” for “numbers were normalized by cellular control copy number, and compound effects”, “reported. • HCMV: Strain AD169 Street was assayed in MRC-5 cells and was used at 0.05-0.1 pfu/cell. The assays were performed in either growth media or in the same media with 50% fetal bovine serum. Primer-probe set was Thermo Fisher Assay ID=AIFATFK. • VZV: Strain Street was maintained as an infected cell stock in MRC-5 cells. It was assayed in MeWo or MRC5 cells and was used at 0.04-0.1 pfu/cell. […]” for “reported.”
# [2] = biological target: T1, varicella zoster virus DNA polymerase (Varicella-zoster virus, UniProt P09252); assay: VZV polymerase assay (AlphaLISA, IC50); format: biochemical; details: polymerase assay of Example 190
# T1 construct: made in house; host or cells: SF21 insect cells (baculovirus vector)
# T1 sequence (P09252 whole entry): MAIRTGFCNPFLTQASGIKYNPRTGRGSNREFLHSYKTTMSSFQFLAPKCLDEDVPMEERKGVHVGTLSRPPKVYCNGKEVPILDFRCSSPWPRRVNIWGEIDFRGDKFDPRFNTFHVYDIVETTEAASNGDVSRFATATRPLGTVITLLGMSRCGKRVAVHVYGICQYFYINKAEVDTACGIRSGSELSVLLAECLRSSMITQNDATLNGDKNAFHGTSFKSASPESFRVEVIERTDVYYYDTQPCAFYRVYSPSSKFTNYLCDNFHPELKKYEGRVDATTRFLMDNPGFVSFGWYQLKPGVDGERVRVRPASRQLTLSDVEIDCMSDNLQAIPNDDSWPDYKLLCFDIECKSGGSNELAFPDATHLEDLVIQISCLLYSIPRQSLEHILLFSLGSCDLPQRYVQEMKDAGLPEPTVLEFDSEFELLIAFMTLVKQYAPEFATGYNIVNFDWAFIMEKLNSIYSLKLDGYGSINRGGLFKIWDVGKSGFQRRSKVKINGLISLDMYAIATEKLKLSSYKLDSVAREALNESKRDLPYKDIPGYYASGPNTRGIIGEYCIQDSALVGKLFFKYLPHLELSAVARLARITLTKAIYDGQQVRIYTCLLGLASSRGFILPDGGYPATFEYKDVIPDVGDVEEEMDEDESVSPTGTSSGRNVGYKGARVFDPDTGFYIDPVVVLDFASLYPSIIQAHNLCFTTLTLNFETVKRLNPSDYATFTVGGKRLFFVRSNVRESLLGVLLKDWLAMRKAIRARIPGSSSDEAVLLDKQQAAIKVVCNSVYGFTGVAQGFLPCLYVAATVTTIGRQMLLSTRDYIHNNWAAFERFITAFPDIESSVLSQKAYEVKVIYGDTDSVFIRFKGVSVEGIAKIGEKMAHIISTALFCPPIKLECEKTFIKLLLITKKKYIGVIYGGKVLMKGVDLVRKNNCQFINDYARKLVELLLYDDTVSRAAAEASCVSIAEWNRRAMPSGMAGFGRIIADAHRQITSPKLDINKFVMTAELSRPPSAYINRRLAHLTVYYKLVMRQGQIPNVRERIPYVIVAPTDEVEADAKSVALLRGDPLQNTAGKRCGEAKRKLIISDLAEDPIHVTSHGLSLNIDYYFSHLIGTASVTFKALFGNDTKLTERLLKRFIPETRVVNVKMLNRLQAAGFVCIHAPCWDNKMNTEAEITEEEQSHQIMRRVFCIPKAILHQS
# Protocol: (§4) Human cytomegalovirus and varicella zoster virus DNA polymerases were expressed via baculovirus vector in SF21 cells and purified. Heterodimeric nucleic acid substrate used in the herpesvirus polymerase reactions was generated by annealing a 59-mer template to a 17-mer digoxigenin-labeled primer. Polymerase (HCMV final concentration of 0.2 nM; VZV final concentration of 0.4 nM) was combined with an inhibitor compound or DMSO in assay buffer (10 mM HEPES, pH 7.5, 25 mM KCl, 25 mM NaCl, 5 mM MgCl2, 5% glycerol, 0.67 mg/ml bovine serum albuminutes, and 1 mM tris(2-carboxyethyl)phosphine), and this mixture was pre-incubated for 30 minutes at room temperature in 384-well microtiter plates. The polymerization reaction was initiated by the addition of template/primer substrate (final concentration: 1.6 nM), and dNTPs (final concentration: 24 nM dCTP, 24 nMdGTP, 16 nM dATP, 16 nM dTTP, and 0.8 nM biotin-dUTP). After 60 minutes incubation at 37° C., reactions were terminated with quench buffer (25 mM HEPES pH 7.5, 100 mM NaCl, 0.25% Tween-20, 12 mM EDTA, and 1 mg/ml bovine serum albumin). Incorporation of biotinylated UTP was detected with 2.5-5 ug/ml anti-DIG AlphaLISA acceptor beads and 5-10 ug/ml streptavidin AlphaLISA donor beads (Perkin Elmer). Compound effects were normalized to the window defined by the controls (DMSO only and pre-quenched wells), and were fit using a 4-parameter algorithm to report an IC50.
# [3] = tested on: HSV-1 Strain F in Vero or MRC5 cells; assay: Viral qPCR assay HSV-1 (V0/V1, V2/V3), EC50; format: cell-based; details: Human alphaherpesvirus 1, Vero, read-out: HSV1 Cell (EC50) VERO 10%
# Protocol: as §1, §2, §3
# as §2, with “gene” for “gene and of the cellular control, PPIA (Thermo Fisher Assay ID=Hs04194521_s1),”, “in” for “in separate”, “Compound effects on viral” for “Viral”, “number” for “numbers were normalized by cellular control copy number, and compound effects”, “reported. • HCMV: Strain AD169 Street was assayed in MRC-5 cells and was used at 0.05-0.1 pfu/cell. The assays were performed in either growth media or in the same media with 50% fetal bovine serum. Primer-probe set was Thermo Fisher Assay ID=AIFATFK. • VZV: Strain Street was maintained as an infected cell stock in MRC-5 cells. It was assayed in MeWo or MRC5 cells and was used at 0.04-0.1 pfu/cell. […]” for “reported.”
# [4] = tested on: VZV in MeWo or MRC5 cells; assay: Viral qPCR assay VZV (V0/V1, V2/V3), EC50; format: cell-based
# Protocol: as §1, §2, §3
# as §2, with “gene” for “gene and of the cellular control, PPIA (Thermo Fisher Assay ID=Hs04194521_s1),”, “in” for “in separate”, “Compound effects on viral” for “Viral”, “number” for “numbers were normalized by cellular control copy number, and compound effects”, “reported. • HCMV: Strain AD169 Street was assayed in MRC-5 cells and was used at 0.05-0.1 pfu/cell. The assays were performed in either growth media or in the same media with 50% fetal bovine serum. Primer-probe set was Thermo Fisher Assay ID=AIFATFK. • VZV: Strain Street was maintained as an infected cell stock in MRC-5 cells. It was assayed in MeWo or MRC5 cells and was used at 0.04-0.1 pfu/cell. […]” for “reported.”
# [5] = biological target: T2, Human cytomegalovirus DNA polymerase (Human cytomegalovirus, UniProt P08546); assay: HCMV polymerase assay (AlphaLISA, IC50); format: biochemical; details: polymerase assay of Example 190
# T2 construct: made in house; host or cells: SF21 insect cells (baculovirus vector)
# T2 sequence (P08546 whole entry): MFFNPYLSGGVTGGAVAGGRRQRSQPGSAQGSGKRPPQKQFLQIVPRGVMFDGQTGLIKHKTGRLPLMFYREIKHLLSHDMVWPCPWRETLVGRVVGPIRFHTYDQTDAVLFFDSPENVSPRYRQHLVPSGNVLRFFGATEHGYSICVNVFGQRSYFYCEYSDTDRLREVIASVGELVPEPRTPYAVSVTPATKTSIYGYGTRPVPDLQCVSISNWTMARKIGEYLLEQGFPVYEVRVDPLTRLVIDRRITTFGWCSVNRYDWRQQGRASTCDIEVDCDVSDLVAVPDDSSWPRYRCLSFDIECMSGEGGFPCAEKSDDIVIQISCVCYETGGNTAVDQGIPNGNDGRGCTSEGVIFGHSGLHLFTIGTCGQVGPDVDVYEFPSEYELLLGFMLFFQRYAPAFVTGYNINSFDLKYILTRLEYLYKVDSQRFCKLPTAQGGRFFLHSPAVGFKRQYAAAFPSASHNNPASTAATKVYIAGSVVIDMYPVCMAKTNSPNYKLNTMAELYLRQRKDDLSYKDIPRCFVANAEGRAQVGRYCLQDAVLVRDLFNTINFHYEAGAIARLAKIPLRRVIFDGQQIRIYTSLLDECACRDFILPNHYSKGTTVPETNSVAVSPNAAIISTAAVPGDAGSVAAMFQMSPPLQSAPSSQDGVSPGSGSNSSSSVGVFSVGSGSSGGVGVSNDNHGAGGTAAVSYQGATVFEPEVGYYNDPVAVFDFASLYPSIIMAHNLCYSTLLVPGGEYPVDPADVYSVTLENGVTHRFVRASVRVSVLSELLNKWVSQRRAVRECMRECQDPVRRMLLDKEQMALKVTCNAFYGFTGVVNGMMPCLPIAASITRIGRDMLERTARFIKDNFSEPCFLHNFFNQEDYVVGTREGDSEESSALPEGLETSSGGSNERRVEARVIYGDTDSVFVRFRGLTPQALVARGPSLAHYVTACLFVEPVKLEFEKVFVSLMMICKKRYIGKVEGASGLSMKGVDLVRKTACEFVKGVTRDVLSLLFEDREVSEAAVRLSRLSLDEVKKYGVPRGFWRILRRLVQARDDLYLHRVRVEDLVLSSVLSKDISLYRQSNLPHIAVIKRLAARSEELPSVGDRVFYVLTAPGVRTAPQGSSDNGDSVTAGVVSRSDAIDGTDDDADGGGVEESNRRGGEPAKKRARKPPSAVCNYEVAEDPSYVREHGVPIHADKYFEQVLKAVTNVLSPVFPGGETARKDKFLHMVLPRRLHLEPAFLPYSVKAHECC
# Protocol: as §4
# [6] = Human betaherpesvirus 5, AD169, MRC5, viral qPCR assay of Example 191, read-out: HCMV Cell (EC50)
# [7] = Human alphaherpesvirus 3, MRC5, MRC5 cells, 10%, read-out: VZV Cell (EC50) MRC5 10%
# [8] = Human alphaherpesvirus 3, MeWo, MEWO cells, 10%, read-out: VZV Cell (EC50) MEWO 10%
IC50 [2] [nM],IC50 [5] [nM],SMILES,"EC50 [1, 6] [nM]","EC50 ([3]; VERO cells, 10%) [nM]","EC50 [4, 7] [nM]","EC50 [4, 8] [nM]","EC50 ([1]; Human betaherpesvirus 5, AD169, MRC5, read-out: HCMV Cell (EC50)) [nM]",EC50 [3] [nM],"EC50 ([4]; Human alphaherpesvirus 3, MeWo, read-out: VZV Cell (EC50) MEWO 10%) [nM]"
95.4,124,CC1(O)CCN(Cc2cnc(C(=O)NCc3ccc(Cl)cc3)cc2O[C@H]2CCN3C(=O)OC[C@@H]3C2)C1 (mixture of isomers) [Compound 134],1930,5850,3970,–,–,–,–
36.7,35,CO[C@H]1CN(Cc2cnc(C(=O)NCc3ccc(Cl)cc3)cc2O[C@H]2CCN3C(=O)OC[C@@H]3C2)[C@@H]1C (mixture of isomers) [Compound 137],575,602,1420,–,–,–,–
54.6,62,O=C(NCc1ccc(Cl)cc1)c1cc(O[C@H]2CCN3C(=O)OC[C@@H]3C2)c(CN2CCCC(O)C2)cn1 (mixture of isomers) [Compound 140],855,4320,2560,–,–,–,–
12.9,17.8,O=C(NCc1ccc(Cl)cc1)c1cc(O[C@H]2CCN3C(=O)OC[C@@H]3C2)c(CN2CCC3OCCC32)cn1 (mixture of isomers) [Compound 142],243,453,490,–,–,–,–
114,147,CC(C)CCn1cc(-c2cnc(C(=O)NCc3ccc(Cl)cc3)cc2O[C@H]2CCN3C(=O)OC[C@@H]3C2)cn1 (racemic) [Compound 9],582,1130,–,859,–,–,–
41.7,80.1,CN(C)CCn1cc(-c2cnc(C(=O)NCc3ccc(Cl)cc3)cc2O[C@H]2CCN3C(=O)OC[C@@H]3C2)cn1 (racemic) [Compound 10],178,1360,–,375,–,–,–
51.2,70.5,CC(C)Cn1cc(-c2cnc(C(=O)NCc3ccc(Cl)cc3)cc2O[C@H]2CCN3C(=O)OC[C@@H]3C2)cn1 (racemic) [Compound 11],685,813,–,712,–,–,–
69.6,70.5,CC(C)(C)n1cc(-c2cnc(C(=O)NCc3ccc(Cl)cc3)cc2O[C@H]2CCN3C(=O)OC[C@@H]3C2)cn1 (racemic) [Compound 12],1160,882,–,977,–,–,–
38,50.9,CCCn1cc(-c2cnc(C(=O)NCc3ccc(Cl)cc3)cc2O[C@H]2CCN3C(=O)OC[C@@H]3C2)cn1 (racemic) [Compound 13],363,388,–,601,–,–,–
11.2,20.8,CCn1cc(-c2cnc(C(=O)NCc3ccc(Cl)cc3)cc2O[C@H]2CCN3C(=O)OC[C@@H]3C2)cn1 (racemic) [Compound 16],188,200,–,165,–,–,–
23.9,38.8,Cn1cc(-c2cnc(C(=O)NCc3ccc(C#N)cc3)cc2O[C@H]2CCN3C(=O)OC[C@@H]3C2)cn1 (racemic) [Compound 95],181,1920,–,241,–,–,–
40.7,67.9,N#Cc1cnc(C(=O)NCc2ccc(Cl)cc2)cc1O[C@H]1CCN2C(=O)CC[C@@H]2C1 (racemic) [Compound 158],1040,473,–,574,–,–,–
45,93.2,CC(=O)N1CCC(Oc2cc(C(=O)NCc3ccc(Cl)cc3)ncc2/C=C/CO)CC1 [Compound 73],1780,842,–,–,–,–,–
35,83,COC/C=C/c1cnc(C(=O)NCc2ccc(Cl)cc2)cc1OC1CCN(C(C)=O)CC1 [Compound 74],1440,280,–,–,–,–,–
165,209,CC(=O)N1CCC(Oc2cc(C(=O)NCc3ccc(Cl)cc3)ncc2C#Cc2cc(C)ccn2)CC1 [Compound 76],1230,624,–,–,–,–,–
27.9,45.6,O=C(NCc1ccc(Cl)cc1)c1cc(O[C@H]2CCN3C(=O)OC[C@@H]3C2)c(CO)cn1 [Compound 98],509,1520,–,–,–,–,–
117,199,Cc1ncc(-c2cc(O[C@H]3CCN4C(=O)OC[C@@H]4C3)cc(C(=O)NCc3ccc(Cl)cc3)n2)s1 [Compound 102],8400,427,–,–,–,–,–
956,2310,Cc1cnc(-c2cnc(C(=O)NCc3ccc(Cl)cc3)cc2OC(C)C)s1 [Compound 103],19400,3000,–,–,–,–,–
8.04,20.1,O=C(NCc1ccc(Cl)cc1)c1cc(O[C@H]2CCN3C(=O)OC[C@@H]3C2)c(O)cn1 [Compound 146],1140,6220,–,–,–,–,–
134,201,O=C(NCc1ccc(Cl)cc1)c1cc(O[C@H]2CCN3C(=O)OC[C@@H]3C2)cc(CO)n1 [Compound 152],1890,10700,–,–,–,–,–
5.45,46.7,Cc1cnc(C(=O)NCc2ccc(Cl)cc2)cc1O[C@H]1CCN2C(=O)CC[C@@H]2C1 [Compound 169],1490,594,–,–,–,–,–

SMILES,IC50 [2] [nM],IC50 [5] [nM],"EC50 [1, 6] [nM]","EC50 ([3]; VERO cells, 10%) [nM]","EC50 [4, 7] [nM]","EC50 [4, 8] [nM]","EC50 ([1]; Human betaherpesvirus 5, AD169, MRC5, read-out: HCMV Cell (EC50)) [nM]",EC50 [3] [nM],"EC50 ([4]; Human alphaherpesvirus 3, MeWo, read-out: VZV Cell (EC50) MEWO 10%) [nM]"
Cn1cc(-c2cnc(C(=O)NCc3ccc(Cl)cc3)cc2O[C@H]2CCN3C(=O)COC[C@@H]3C2)cn1 (racemic) [Compound 157],70.8,150,–,–,–,–,901,222,852

# Reference: patent US20240067657A1, “AMIDO-SUBSTITUTED PYRIDYL COMPOUNDS AND METHODS OF USE THEREOF FOR THE TREATMENT OF HERPESVIRUSES” (Merck Sharp & Dohme LLC, priority 2020, published 2024)
